Data taken from patent US4524066A, “Process for the preparation of injectable chondroitin polysulfate” (Luitpold-Werk Chemisch-pharmazeutische Fabrik, priority 1981, dated 1985).

Legend:
Dogs = experiment: Acute toxicity, dogs, i.v.; type: in vivo
Cats = experiment: Acute toxicity, cats, i.v.; type: in vivo
NMRI mice = experiment: Acute toxicity, NMRI mice, i.v.; type: in vivo
Wistar rats = experiment: Acute toxicity, Wistar rats, i.v.; type: in vivo

For chondroitin polysulfate, the “therapeutic benefit of daily doses” value (humans; daily doses of up to 500 mg) was “therapeutically advantageous”, the “therapeutic action in humans” value (humans; single dosages 20-250 mg, in particular 30-150 mg, per individual in 0.2-2.0 ml) was “have a therapeutic action in humans” and the LD50/7d (Dogs) was > 1,000 mg/kg. For the same substance, the LD50/7d (Cats) was > 1,000 mg/kg, the LD50/7d (NMRI mice) was > 3,500 mg/kg and the LD50/7d (Wistar rats) was > 3,000 mg/kg.
